Tested on: crabgrass
Assay: Test Example 2: soil surface treatment, upland pot test
Format: in vivo, Digitaria sanguinalis L.
Details: active ingredient 250 g/ha, observed 20th to 28th day
Procedure, shortened: (§1)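 Upland soil in pots of 1/170,000 ha is sown; on day 1 after sowing the formulated compound (wettable powder or emulsifiable concentrate, predetermined a.i. amount, water volume 1,500 L/ha) is applied to the soil surface with a small sprayer. Percent control is judged by eye 20–28 days later.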

| Structure (SMILES) | Growth controlling degree (%) Crabgrass [%] |
| --- | --- |
| CC(C)=CC(=O)N(C)C(c1cnccc1C(F)(F)F)C(C)C (stereo not shown) [Compound I-205] | 100 |
| CCC(Br)C(=O)N(C)C(c1cnccc1C(F)(F)F)C(C)C (stereo not shown) [Compound I-202] | 100 |
| CC(=Cc1ccccc1)C(=O)N(C)C(c1cnccc1C(F)(F)F)C(C)C (stereo not shown) [I-206] | 100 |

Same assay, conditions: active ingredient 500 g/ha, observed 20th to 28th day

| Structure (SMILES) | Growth controlling degree (%) Crabgrass [%] |
| --- | --- |
| CC(C)C(c1cnccc1C(F)(F)F)N(C)S(=O)(=O)c1ccccc1Cl (racemic) [Compound I-126] | 30 |

Tested on: barnyardgrass
Assay: Test Example 3: paddy pot test, application under submerged conditions
Format: in vivo, Echinochloa crus-galli L.
Details: active ingredient 250 g/ha; submerged application at 0.5 leaf stage; visually observed 14 days after application; 0 = non-treated, 100 = complete kill
Procedure, shortened: (§2)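 Paddy soil pots; seeds sown, lightly covered; flooded 0.5–1 cm in greenhouse; wapato tubers planted day 1–2; flood raised to 3–4 cm. Submerged pipette application at 0.5 leaf / primary leaf stage. Visual score day 14, 0–100%.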

| Structure (SMILES) | Growth controlling degree (%) Barnyardgrass [%] |
| --- | --- |
| CC(C)=CC(=O)N(C)C(c1cnccc1C(F)(F)F)C(C)C (stereo not shown) [Compound I-205] | 100 |
| CCC(Br)C(=O)N(C)C(c1cnccc1C(F)(F)F)C(C)C (stereo not shown) [Compound I-202] | 98 |
| CC(=Cc1ccccc1)C(=O)N(C)C(c1cnccc1C(F)(F)F)C(C)C (stereo not shown) [I-206] | 100 |

Tested on: barnyardgrass
Assay: Test Example 2: soil surface treatment, upland pot test
Format: in vivo, Echinochloa crus-galli L.
Details: active ingredient 250 g/ha, observed 20th to 28th day
Procedure, shortened: as §1

| Structure (SMILES) | Growth controlling degree (%) Barnyardgrass [%] |
| --- | --- |
| CC(C)=CC(=O)N(C)C(c1cnccc1C(F)(F)F)C(C)C (stereo not shown) [Compound I-205] | 100 |
| CCC(Br)C(=O)N(C)C(c1cnccc1C(F)(F)F)C(C)C (stereo not shown) [Compound I-202] | 100 |
| CC(=Cc1ccccc1)C(=O)N(C)C(c1cnccc1C(F)(F)F)C(C)C (stereo not shown) [I-206] | 100 |

Same assay, conditions: active ingredient 500 g/ha, observed 20th to 28th day

| Structure (SMILES) | Growth controlling degree (%) Barnyardgrass [%] |
| --- | --- |
| CC(C)C(c1cnccc1C(F)(F)F)N(C)S(=O)(=O)c1ccccc1Cl (racemic) [Compound I-126] | 80 |

Tested on: corn
Assay: as above
Format: in vivo, Zea mays L.
Details: active ingredient 250 g/ha, observed 20th to 28th day
Procedure, shortened: as §1

| Structure (SMILES) | Growth controlling degree (%) Corn [%] |
| --- | --- |
| CC(C)=CC(=O)N(C)C(c1cnccc1C(F)(F)F)C(C)C (stereo not shown) [Compound I-205] | 40 |
| CCC(Br)C(=O)N(C)C(c1cnccc1C(F)(F)F)C(C)C (stereo not shown) [Compound I-202] | 50 |
| CC(=Cc1ccccc1)C(=O)N(C)C(c1cnccc1C(F)(F)F)C(C)C (stereo not shown) [I-206] | 30 |

Same assay, conditions: active ingredient 500 g/ha, observed 20th to 28th day

| Structure (SMILES) | Growth controlling degree (%) Corn [%] |
| --- | --- |
| CC(C)C(c1cnccc1C(F)(F)F)N(C)S(=O)(=O)c1ccccc1Cl (racemic) [Compound I-126] | 0 |

Tested on: rice
Assay: as above
Format: in vivo, Oryza sativa L.
Details: active ingredient 250 g/ha, observed 20th to 28th day
Procedure, shortened: as §1

| Structure (SMILES) | Growth controlling degree (%) Rice [%] |
| --- | --- |
| CC(C)=CC(=O)N(C)C(c1cnccc1C(F)(F)F)C(C)C (stereo not shown) [Compound I-205] | 70 |
| CCC(Br)C(=O)N(C)C(c1cnccc1C(F)(F)F)C(C)C (stereo not shown) [Compound I-202] | 60 |
| CC(=Cc1ccccc1)C(=O)N(C)C(c1cnccc1C(F)(F)F)C(C)C (stereo not shown) [I-206] | 40 |

Same assay, conditions: active ingredient 500 g/ha, observed 20th to 28th day

| Structure (SMILES) | Growth controlling degree (%) Rice [%] |
| --- | --- |
| CC(C)C(c1cnccc1C(F)(F)F)N(C)S(=O)(=O)c1ccccc1Cl (racemic) [Compound I-126] | 20 |

Tested on: green foxtail
Assay: as above
Format: in vivo, Setaria viridis L.
Details: active ingredient 250 g/ha, observed 20th to 28th day
Procedure, shortened: as §1

| Structure (SMILES) | Growth controlling degree (%) Green foxtail [%] |
| --- | --- |
| CC(C)=CC(=O)N(C)C(c1cnccc1C(F)(F)F)C(C)C (stereo not shown) [Compound I-205] | 100 |
| CCC(Br)C(=O)N(C)C(c1cnccc1C(F)(F)F)C(C)C (stereo not shown) [Compound I-202] | 95 |
| CC(=Cc1ccccc1)C(=O)N(C)C(c1cnccc1C(F)(F)F)C(C)C (stereo not shown) [I-206] | 100 |

Same assay, conditions: active ingredient 500 g/ha, observed 20th to 28th day

| Structure (SMILES) | Growth controlling degree (%) Green foxtail [%] |
| --- | --- |
| CC(C)C(c1cnccc1C(F)(F)F)N(C)S(=O)(=O)c1ccccc1Cl (racemic) [Compound I-126] | 70 |

Tested on: wheat
Assay: as above
Format: in vivo, Triticum spp.
Details: active ingredient 250 g/ha, observed 20th to 28th day
Source text: Upland field soil was put into a 1/170,000 ha pot, and seed of various plants (barnyardgrass, crabgrass, green foxtail, redroot pigweed, prickly sida, velvetleaf, rice, wheat, corn, soybean) were sown. On the 1st day after the sowing, a wettable powder or emulsifiable concentrate having the compound of the present invention formulated in accordance with a usual formulation method, was weighed so that the active ingredient would be a predetermined amount, and diluted with water in an amount of 1,500 L/ha. The herbicide thus adjusted was applied by a small size sprayer for soil surface treatment. On the 20th to 28th days after the application of the herbicide, the growth of the respective plants was visually observed, and the herbicidal effects were evaluated by the growth controlling degrees (%) ranging from 0 (equivalent to the non-treated plot) to 100 (complete kill), whereby the results shown in Table 4, were obtained.

| Structure (SMILES) | Growth controlling degree (%) wheat [%] |
| --- | --- |
| CC(C)=CC(=O)N(C)C(c1cnccc1C(F)(F)F)C(C)C (stereo not shown) [Compound I-205] | 95 |
| CCC(Br)C(=O)N(C)C(c1cnccc1C(F)(F)F)C(C)C (stereo not shown) [Compound I-202] | 40 |
| CC(=Cc1ccccc1)C(=O)N(C)C(c1cnccc1C(F)(F)F)C(C)C (stereo not shown) [I-206] | 30 |

Same assay, conditions: active ingredient 500 g/ha, observed 20th to 28th day

| Structure (SMILES) | Growth controlling degree (%) wheat [%] |
| --- | --- |
| CC(C)C(c1cnccc1C(F)(F)F)N(C)S(=O)(=O)c1ccccc1Cl (racemic) [Compound I-126] | 10 |

Tested on: japanese bulrush
Assay: Test Example 3: paddy pot test, application under submerged conditions
Format: in vivo, Scirpus juncoides
Details: active ingredient 250 g/ha; submerged application at 0.5 leaf stage; visually observed 14 days after application; 0 = non-treated, 100 = complete kill
Procedure, shortened: as §2

| Structure (SMILES) | Growth controlling degree (%) Japanese bulrush [%] |
| --- | --- |
| CC(C)=CC(=O)N(C)C(c1cnccc1C(F)(F)F)C(C)C (stereo not shown) [Compound I-205] | 98 |
| CCC(Br)C(=O)N(C)C(c1cnccc1C(F)(F)F)C(C)C (stereo not shown) [Compound I-202] | 98 |
| CC(=Cc1ccccc1)C(=O)N(C)C(c1cnccc1C(F)(F)F)C(C)C (stereo not shown) [I-206] | 98 |

Tested on: rice (var. Nihonbare)
Assay: Test Example 3: paddy pot test, transplanted rice
Format: in vivo, Oryza sativa L.
Details: active ingredient 250 g/ha, applied 4th day after transplantation, visually observed 21st day after application, 0 = non-treated, 100 = complete kill
Procedure, shortened: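 Visual crop-injury rating (0 = as untreated, 100 = complete kill, %) taken 21 days post-application. Treatment: formulated compound, water-diluted, pipetted into 3–4 cm flood water at a preset active-ingredient dose, 4 days after transplanting 2-leaf Nihonbare rice 3 cm deep in puddled paddy soil.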

| Structure (SMILES) | Growth controlling degree (%) Rice [%] |
| --- | --- |
| CC(C)=CC(=O)N(C)C(c1cnccc1C(F)(F)F)C(C)C (stereo not shown) [Compound I-205] | 20 |
| CCC(Br)C(=O)N(C)C(c1cnccc1C(F)(F)F)C(C)C (stereo not shown) [Compound I-202] | 10 |
| CC(=Cc1ccccc1)C(=O)N(C)C(c1cnccc1C(F)(F)F)C(C)C (stereo not shown) [I-206] | 10 |

Tested on: prickly sida
Assay: Test Example 2: soil surface treatment, upland pot test
Format: in vivo, Sida spinosa L.
Details: active ingredient 250 g/ha, observed 20th to 28th day
Procedure, shortened: as §1

| Structure (SMILES) | Growth controlling degree (%) Prickly sida [%] |
| --- | --- |
| CC(C)=CC(=O)N(C)C(c1cnccc1C(F)(F)F)C(C)C (stereo not shown) [Compound I-205] | 70 |
| CCC(Br)C(=O)N(C)C(c1cnccc1C(F)(F)F)C(C)C (stereo not shown) [Compound I-202] | 70 |
| CC(=Cc1ccccc1)C(=O)N(C)C(c1cnccc1C(F)(F)F)C(C)C (stereo not shown) [I-206] | 50 |

Same assay, conditions: active ingredient 500 g/ha, observed 20th to 28th day

| Structure (SMILES) | Growth controlling degree (%) Prickly sida [%] |
| --- | --- |
| CC(C)C(c1cnccc1C(F)(F)F)N(C)S(=O)(=O)c1ccccc1Cl (racemic) [Compound I-126] | 50 |

Tested on: velvetleaf
Assay: as above
Format: in vivo, Abutilon theophrasti MEDIC.
Details: active ingredient 250 g/ha, observed 20th to 28th day
Procedure, shortened: as §1

| Structure (SMILES) | Growth controlling degree (%) Velvetleaf [%] |
| --- | --- |
| CC(C)=CC(=O)N(C)C(c1cnccc1C(F)(F)F)C(C)C (stereo not shown) [Compound I-205] | 60 |
| CCC(Br)C(=O)N(C)C(c1cnccc1C(F)(F)F)C(C)C (stereo not shown) [Compound I-202] | 40 |
| CC(=Cc1ccccc1)C(=O)N(C)C(c1cnccc1C(F)(F)F)C(C)C (stereo not shown) [I-206] | 40 |

Same assay, conditions: active ingredient 500 g/ha, observed 20th to 28th day

| Structure (SMILES) | Growth controlling degree (%) Velvetleaf [%] |
| --- | --- |
| CC(C)C(c1cnccc1C(F)(F)F)N(C)S(=O)(=O)c1ccccc1Cl (racemic) [Compound I-126] | 10 |

Tested on: soybean
Assay: as above
Format: in vivo, Glycine max Merr.
Details: active ingredient 250 g/ha, observed 20th to 28th day
Procedure, shortened: as §1

| Structure (SMILES) | Growth controlling degree (%) Soyabean [%] |
| --- | --- |
| CC(C)=CC(=O)N(C)C(c1cnccc1C(F)(F)F)C(C)C (stereo not shown) [Compound I-205] | 30 |
| CCC(Br)C(=O)N(C)C(c1cnccc1C(F)(F)F)C(C)C (stereo not shown) [Compound I-202] | 35 |
| CC(=Cc1ccccc1)C(=O)N(C)C(c1cnccc1C(F)(F)F)C(C)C (stereo not shown) [I-206] | 20 |

Same assay, conditions: active ingredient 500 g/ha, observed 20th to 28th day

| Structure (SMILES) | Growth controlling degree (%) Soyabean [%] |
| --- | --- |
| CC(C)C(c1cnccc1C(F)(F)F)N(C)S(=O)(=O)c1ccccc1Cl (racemic) [Compound I-126] | 0 |

Tested on: redroot pigweed
Assay: as above
Format: in vivo, Amaranthus retroflexus L.
Details: active ingredient 250 g/ha, observed 20th to 28th day
Procedure, shortened: as §1

| Structure (SMILES) | Growth controlling degree (%) Redroot pigweed [%] |
| --- | --- |
| CC(C)=CC(=O)N(C)C(c1cnccc1C(F)(F)F)C(C)C (stereo not shown) [Compound I-205] | 80 |
| CCC(Br)C(=O)N(C)C(c1cnccc1C(F)(F)F)C(C)C (stereo not shown) [Compound I-202] | 80 |
| CC(=Cc1ccccc1)C(=O)N(C)C(c1cnccc1C(F)(F)F)C(C)C (stereo not shown) [I-206] | 70 |

Same assay, conditions: active ingredient 500 g/ha, observed 20th to 28th day

| Structure (SMILES) | Growth controlling degree (%) Redroot pigweed [%] |
| --- | --- |
| CC(C)C(c1cnccc1C(F)(F)F)N(C)S(=O)(=O)c1ccccc1Cl (racemic) [Compound I-126] | 30 |

— US20050239656A1, “Pyridine compounds or salts thereof and herbicides containing the same” (priority 2002, published 2005)
